The target of experiment [1] is T1, Human GPR40 (Homo sapiens, UniProt O14842). Nature of the experiment: Inositol Phosphate Turnover (IP1) Assay 1. The class given is cell-based. The arrangement: expressed in transfected cells; host or cells: HEK cells stably expressing the aequorin reporter. The following applies: HEK cells stably expressing human GPR40, 96-well, 3H-inositol labeling, SPA beads. On the procedure:
(§1) Human and mouse GPR40 stable cell-lines were generated in CHO cells stably expressing NFAT BLA (Beta-lactamase). A human GPR40 stable cell-line was generated in HEK cells stably expressing the aequorin expressing reporter. The expression plasmids were transfected using lipofectamine (Life Technologies) following manufacturer's instructions. Stable cell-lines were generated following drug selection.
The assay was performed in 96-well format. HEK cells stably expressing human GPR40 were plated to be 60-80% confluent within 72 h. After 72 h, the plates were aspirated and the cells washed with inositol-free DMEM (ICN). The wash media was replaced with 150 μL of 3H-inositol labeling media (inositol-free media containing 0.4% human albumin or 0.4% mouse albumin, 1× pen/strep antibiotics, glutamine, 25 mM HEPES to which was added 3H-myo-inositol NEN #NET114A 1 mCi/mL, 25 Ci/mmol diluted 1:150 in loading media with a final specific radioactivity of 1 μCi/150 μL). Alternatively, the human and mouse albumin can be added after the overnight labeling step before the addition of LiCl.
The assay was typically run the next day after 18 h labeling. On the day of the assay, 5 μL of 300 mM LiCl was added to all wells and incubated at 37 degrees for 20 min 0.75 μL of 200× compounds were added and incubated with the cells for 60 min at 37 degrees. The media was then aspirated off and the assay terminated with the addition of 60 μL 10 mM formic acid. The cells were lysed for 60 min at room temperature. 15-30 μL of lysate was mixed with 70 μL/1 mg YSi SPA beads (Amersham) in clear bottom Isoplates. The plates were shaken for 2 h at room temperature. Beads were allowed to settle and the plates were counted in the Wallac Microbeta.

In experiment [2] the target is T1, Human GPR40. The experiment can be described thus: FLIPR assay (agonist-induced calcium mobilization). The format is cell-based. Details: expressed in transfected cells. The following applies: GPR40/CHO NFAT BLA cells. The procedure: as §1
FLIPR (Fluorimetric Imaging Plate Reader, Molecular Devices) assays were performed to measure agonist-induced calcium mobilization of the stable clones. For the FLIPR assay, one day before assay, GPR40/CHO NFAT BLA cells were seeded into black-wall-clear-bottom 384-well plates (Costar) at 1.4×10e4 cells/20 μL medium/well. The cells were incubated with 20 μl/well of the assay buffer (HBSS, 0.1% BSA, 20 mM HEPES, 2.5 mM probenecid, pH 7.4) containing 8 μM fluo-4, AM, 0.08% pluronic acid at room temperature for 100 minutes. Fluorescence output was measured using FLIPR. Compounds were dissolved in DMSO and diluted to desired concentrations with assay buffer. 13.3 μL/well of compound solution was added.
On the technique in general: Calcium flux is commonly read through the fluorescence of an indicator in the cells.

T1 sequence (O14842 whole entry): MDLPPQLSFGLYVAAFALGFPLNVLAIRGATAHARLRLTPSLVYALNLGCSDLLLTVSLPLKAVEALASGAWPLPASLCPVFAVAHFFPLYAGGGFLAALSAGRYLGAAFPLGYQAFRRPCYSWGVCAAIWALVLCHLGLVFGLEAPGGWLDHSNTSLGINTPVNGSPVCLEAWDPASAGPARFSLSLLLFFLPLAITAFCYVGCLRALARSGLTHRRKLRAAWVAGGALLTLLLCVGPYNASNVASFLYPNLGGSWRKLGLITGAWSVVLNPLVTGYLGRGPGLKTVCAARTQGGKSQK

Broadly, the EC50 is the concentration giving half of the maximal effect. Take `CS(=O)(=O)CCCOc1ccc(-c2cc(COc3cc4c(cn3)[C@H]3[C@@H](C4)[C@@H]3C(=O)O)c(F)cc2C(F)(F)F)c(F)c1` [Example 8, (5aR,6S,6aS)-3-((2′,4-difluoro-4′-(3-(methyl-sulfonyl)-propoxy)-6-(trifluoromethyl)-[1,1′-biphenyl]-3-yl)methoxy)-5,5a,6,6a-tetrahydro-cyclopropa[4,5]cyclo-penta[1,2-c]pyridine-6-carboxylic acid]: the EC50 on Human GPR40 [1] amounted to 6.54 nM; on Human GPR40 [2], 9.2 nM. Taken in the same sequence, the figures for `CC(C)(O)CCOc1ccc(-c2cc(COc3cc4c(cn3)[C@H]3[C@@H](C4)[C@@H]3C(=O)O)c(F)cc2C(F)(F)F)c(C(F)F)c1` [Example 13, (5aR,6S,6aS)-3-((2'-(difluoromethyl)-4-fluoro-4'-(3-hydroxy-3-methyl-butoxy)-6-(trifluoromethyl)-[1,1'-biphenyl]-3-yl)-methoxy)-5,5a,6,6a-tetra-hydrocyclo-propa[4,5]cyclopenta [1,2-c]pyridine-6-carboxylic acid] were 5.94 nM and 9.66 nM. Take `Cc1nc(OCCC(C)(C)O)ccc1-c1cc(COc2cc3c(cn2)[C@H]2[C@@H](C3)[C@@H]2C(=O)O)c(F)cc1C(F)(F)F` [Example 3, (5aR,6S,6aS)-3-((2-fluoro-5-(6-(3-hydroxy-3-methyl-butoxy)-2-methyl-pyridin-3-yl)-4-(trifluoromethyl)-benzyl)-oxy)-5,5a, 6,6a-tetrahydro-cyclopropa[4,5] cyclopenta[1,2-c] pyridine-6-carboxylic acid]: the EC50 on Human GPR40 [1] came to 4.95 nM; on Human GPR40 [2] it was 1.52 nM.

For `CC(C)(O)CCOc1ccc(-c2cc(COc3cc4c(cn3)[C@H]3[C@@H](C4)[C@@H]3C(=O)O)c(F)cc2C(F)F)cc1F` [Example 11, (5aR,6S,6aS)-3-((6-(di-fluoro-methyl)-3',4-di-fluoro-4'-(3-hydroxy-3-methyl-butoxy)-[1,1'-biphenyl]-3-yl)methoxy)-5,5a,6,6a-tetrahydro-cyclopropa[4,5]cyclo-penta[1,2-c]pyridine-6-carboxylic acid], the results for the 50% effective concentration (EC50) on Human GPR40 [1] and on Human GPR40 [2] were 17.6 nM and 16.7 nM, respectively. With `CC(C)(O)CCOc1ncc(-c2cc(COc3cc4c(cn3)[C@H]3[C@@H](C4)[C@@H]3C(=O)O)c(F)cc2C(F)(F)F)cc1F` [Example 15, (5aR,6S,6aS)-3-((2-fluoro-5-(5-fluoro-6-(3-hydroxy-3-methylbutoxy)pyridin-3-yl)-4-(trifluoromethyl)benzyl)oxy)-5,5a,6,6a-tetrahydrocyclopropa[4,5]cyclopenta[1,2-c]pyridine-6-carboxylic acid], the EC50 at Human GPR40 [1] came to 7.97 nM; at Human GPR40 [2], 4.88 nM.

With `Cc1cc(OCCC(C)(C)O)ccc1-c1cc(COc2cc3c(cn2)[C@H]2[C@@H](C3)[C@@H]2C(=O)O)c(F)cc1C(F)(F)F` [Example 1], the EC50 at Human GPR40 [1] stood at 9.89 nM; on Human GPR40 [2], 16.7 nM.

Regarding `Cc1cc(OCCC2(O)COC2)ccc1-c1cc(COc2cc3c(cn2)[C@H]2[C@@H](C3)[C@@H]2C(=O)O)c(F)cc1C(F)(F)F` [Example 14, (5aR,6S,6aS)-3-((4-fluoro-4′-(2-(3-hydroxyoxetan-3-yl)ethoxy)-2′-methyl-6-(trifluoromethyl)-[1,1′-biphenyl]-3-yl)methoxy)-5,5a,6,6a-tetrahydrocyclopropa[4,5]cyclopenta[1,2-c]pyridine-6-carboxylic acid], the EC50 on Human GPR40 [1] turned out to be 5.54 nM; at Human GPR40 [2] it was 10.4 nM. For `Cc1cc(OCCCS(C)(=O)=O)ccc1-c1cc(COc2cc3c(cn2)[C@H]2[C@@H](C3)[C@@H]2C(=O)O)c(F)cc1C(F)(F)F` [Example 2, (5aR,6S,6aS)-3-((4-fluoro-2′-methyl-4′-(3-(methyl-sulfonyl)-propoxy)-6-(tri-fluoromethyl)-[1,1′-biphenyl]-3-yl)methoxy)-5,5a,6,6a-tetrahydrocyclo-propa[4,5]cyclopenta [1,2-c]pyridine-6-carboxylic acid], the EC50 on Human GPR40 [1] was 2.98 nM; at Human GPR40 [2] it was 5.75 nM.

Regarding `CC(C)(O)CCOc1ccc(-c2cc(COc3cc4c(cn3)[C@H]3[C@@H](C4)[C@@H]3C(=O)O)c(F)cc2C(F)(F)F)cc1F` [Example 6, (5aR,6S,6aS)-3-((3′,4-difluoro-4′-(3-hydroxy-3-methyl-butoxy)-6-(trifluoro-methyl)-[1,1′-biphenyl]-3-yl)methoxy)-5,5a,6,6a-tetrahydrocyclopropa [4,5]cyclopenta[1,2-c] pyridine-6-carboxylic acid], the EC50 stood at 14.7 nM on Human GPR40 [1] and 10.9 nM at Human GPR40 [2]. Take `CC(C)(O)CCOc1ccc(-c2cc(COc3cc4c(cn3)[C@H]3[C@@H](C4)[C@@H]3C(=O)O)c(F)cc2C(F)(F)F)c(F)c1` [Example 7, (5aR,6S,6aS)-3-((2′,4-difluoro-4′-(3-hydroxy-3-methylbutoxy)-6-(trifluoro-methyl)-[1,1′-biphenyl]-3-yl)methoxy)-5,5a,6,6a-tetrahydrocyclopropa [4,5]cyclopenta[1,2-c] pyridine-6-carboxylic acid]: the 50% effective concentration (EC50) came out at 11.4 nM on Human GPR40 [1] and 11.2 nM at Human GPR40 [2].

For `Cc1cc(OCCC(C)(C)O)ccc1-c1cc(COc2cc3c(cn2)[C@H]2[C@@H](C3)[C@@H]2C(=O)O)c(F)cc1C(F)F` [Example 4, (5aR,6S,6aS)-3-((6-(difluoro-methyl)-4-fluoro-4′-(3-hydroxy-3-methyl-butoxy)-2′-methyl-[1,1′-biphenyl]-3-yl)methoxy)-5,5a,6,6a-tetrahydrocyclo-propa[4,5] cyclopenta[1,2-c] pyridine-6-carboxylic acid], the EC50 on Human GPR40 [1] was 5.25 nM; at Human GPR40 [2], 14.4 nM. The matching figures for `O=C(O)[C@H]1[C@@H]2Cc3cc(OCc4cc(-c5c(F)cc(OCCC6(O)COC6)cc5F)c(C(F)(F)F)cc4F)ncc3[C@@H]21` [Example 9, (5aR,6S,6aS)-3-((2′,4,6′-trifluoro-4′-(2-(3-hydroxy-oxetan-3-yl)ethoxy)-6-(trifluoromethyl)-[1,1′-biphenyl]-3-yl)methoxy)-5,5a,6,6a-tetrahydrocyclopropa [4,5]cyclopenta[1,2-c]pyridine-6-carboxylic acid]: 11.1 nM and 6.89 nM. Consider `Cc1nc(OCCC(C)(O)C(F)F)ccc1-c1cc(COc2cc3c(cn2)[C@H]2[C@@H](C3)[C@@H]2C(=O)O)c(F)cc1C(F)(F)F` (stereo partly drawn) [Example 16, (5aR,6S,6aS)-3-((5-(6-(4,4-difluoro-3-hydroxy-3-methyl-butoxy)-2-methyl-pyridin-3-yl)-2-fluoro-4-(trifluoro-methyl)-benzyl)-oxy)-5,5a,6,6a-tetrahydro-cyclo-propa[4,5]cyclopenta [1,2-c]pyridine-6-carboxylic acid], for which the EC50 at Human GPR40 [1] was determined as 10.4 nM. `Cc1cc(OCCC(O)C(C)(C)O)cc(C)c1-c1cc(COc2cc3c(cn2)[C@H]2[C@@H](C3)[C@@H]2C(=O)O)c(F)cc1F` (stereo partly drawn) [Example 18, (5aR,6S,6aS)-3-((4′-((3,4-dihydroxy-4-methylpentyl)oxy)-4,6-difluoro-2′,6′-dimethyl-[1,1′-biphenyl]-3-yl)methoxy)-5,5a,6,6a-tetrahydrocycloprop[4,5]cyclopenta[1,2-c]pyridine-6-carboxylic acid] had an EC50 on Human GPR40 [1] of 19.2 nM. Turning to `CC(C)(O)CCOc1cc(F)c(-c2cc(COc3cc4c(cn3)[C@H]3[C@@H](C4)[C@@H]3C(=O)O)c(F)cc2C(F)(F)F)c(F)c1` [Example 10, (5aR,6S,6aS)-3-((2′,4,6′-trifluoro-4′-(3-hydroxy-3-methylbutoxy)-6-(trifluoromethyl)-[1,1′-biphenyl]-3-yl)methoxy)-5,5a,6,6a-tetrahydrocyclo-propa[4,5]cyclopenta [1,2-c]pyridine-6-carboxylic acid], the figures for the EC50 on Human GPR40 [1] and at Human GPR40 [2] were 27.2 nM and 6.4 nM, respectively. With `CC(O)(CCOc1ccc(-c2cc(COc3cc4c(cn3)[C@H]3[C@@H](C4)[C@@H]3C(=O)O)c(F)cc2C(F)(F)F)cc1)C(F)F` (stereo partly drawn) [Example 12, (5aR,6S,6aS)-3-((4′-(4,4-difluoro-3-hydroxy-3-methylbutoxy)-4-fluoro-6-(trifluoromethyl)-[1,1′-biphenyl]-3-yl)methoxy)-5,5a,6,6a-tetrahydrocyclopropa[4,5]cyclopenta[1,2-c]pyridine-6-carboxylic acid], the EC50 came to 20.3 nM at Human GPR40 [1] and 12.5 nM on Human GPR40 [2].
